Source: patent EP0908457B1, “3-(1,2-benzisothiazol- and isoxazol-5-Y1)-2,4(1H,3H)-pyrimidinedione or thione and 3-(1,2-benzisothiazol- and isoxazol-5-y1)-4(3H)-pyrimidinone or thione herbicidal agents” (BASF AKTIENGESELLSCHAFT, priority 1997, dated 1999)

What was measured:
[1] = tested on: Echinochloa oryzoides (Ard.) Fritsch.; test: Preemergence weed control under flooded paddy conditions, ECHORC (Watergrass (Calif.)); type: in vivo; details: preemergence, flooded paddy; further: meaning of each grade not given here
[2] = tested on: Monochoria vaginalis, Presl.; test: Preemergence weed control under flooded paddy conditions, MOOVA (Monochoria); type: in vivo; details: preemergence, flooded paddy; further: meaning of each grade not given here
[3] = tested on: Sagittaria pygmaea, L.; test: Preemergence weed control under flooded paddy conditions, SAGPY (Arrowhead (Pygmaea)); type: in vivo; details: preemergence, flooded paddy; further: meaning of each grade not given here
[4] = tested on: Cyperus serotinus, Rottb.; test: Preemergence weed control under flooded paddy conditions, CYPSE (Flatsedge); type: in vivo; details: preemergence; further: meaning of each grade not given here
[5] = tested on: Oryza sativa, (L.) Tebonnet; test: Rice tolerance to post-transplant applications under flooded paddy conditions (Example 187), ORYSAT (Rice, Tebonnet); details: for herbicidal effect rating, ORYSAT (rice tolerance): rated three to four weeks after treatment; for herbicidal effect rating ORYSAT: rated 3-4 weeks after treatment; on herbicidal effect rating ORYSAT: meaning of each grade not given here
[6] = tested on: Cyperus iria; test: Preemergence weed control under flooded paddy conditions, CYPIR (Rice Flatsedge); type: in vivo; details: preemergence, flooded paddy; further: meaning of each grade not given here
[7] = 0.0313 kg/ha, rated three to four weeks after treatment
[8] = 0.0625 kg/ha, rated three to four weeks after treatment
[9] = 0.1250 kg/ha, rated three to four weeks after treatment
[10] = 0.2500 kg/ha, rated three to four weeks after treatment
[11] = Rate 0.0320 kg/ha, rated 3-4 weeks after treatment
[12] = Rate 0.0620 kg/ha, rated 3-4 weeks after treatment
[13] = Rate 0.1250 kg/ha, rated 3-4 weeks after treatment
[14] = Rate 0.2500 kg/ha, rated 3-4 weeks after treatment
[15] = Rate 0.5000 kg/ha, rated 3-4 weeks after treatment

## Cc1ccc(OCC(=O)OCC#Cc2ccccc2)c(-c2nsc3ccc(-n4c(=O)cc(C(F)(F)F)n(C)c4=O)cc23)c1 [Example 73, 3-Phenyl-2-propynyl {{2-{5-[3,6-dihydro-3-methyl-2,6-dioxo-4-(trifluoromethyl)-1(2H)-pyrimidinyl]-1,2-benzisothiazol-3-yl}-p-tolyl}oxy}acetate]
[1]; [7]
  herbicidal effect rating, ECHORC: 8.0
[1]; [8]
  herbicidal effect rating, ECHORC: 6.5
[1]; [9]
  herbicidal effect rating, ECHORC: 9.0
[1]; [10]
  herbicidal effect rating, ECHORC: 9.0
[2]; [7]
  herbicidal effect rating, MOOVA: 9.0
[2]; [8]
  herbicidal effect rating, MOOVA: 9.0
[2]; [9]
  herbicidal effect rating, MOOVA: 9.0
[2]; [10]
  herbicidal effect rating, MOOVA: 9.0
[3]; [7]
  herbicidal effect rating, SAGPY: 0.0
[3]; [8]
  herbicidal effect rating, SAGPY: 0.0
[3]; [9]
  herbicidal effect rating, SAGPY: 0.0
[3]; [10]
  herbicidal effect rating, SAGPY: 2.0
[4]; [7]
  herbicidal effect rating, CYPSE: 0.0
[4]; [8]
  herbicidal effect rating, CYPSE: 0.0
[4]; [9]
  herbicidal effect rating, CYPSE: 2.0
[4]; [10]
  herbicidal effect rating, CYPSE: 9.0
[5]; 0.0313 kg/ha
  herbicidal effect rating, ORYSAT (rice tolerance): 2.5
[5]; 0.0625 kg/ha
  herbicidal effect rating, ORYSAT (rice tolerance): 3.0
[5]; 0.1250 kg/ha
  herbicidal effect rating, ORYSAT (rice tolerance): 4.0
[5]; 0.2500 kg/ha
  herbicidal effect rating, ORYSAT (rice tolerance): 6.0
[6]; [7]
  herbicidal effect rating, CYPIR: 2.0
[6]; [8]
  herbicidal effect rating, CYPIR: 6.0
[6]; [9]
  herbicidal effect rating, CYPIR: 8.0
[6]; [10]
  herbicidal effect rating, CYPIR: 8.0

## Cn1c(C(F)(F)F)cc(=O)n(-c2ccc3snc(-c4ccccc4OCC(N)=O)c3c2)c1=O [Example 563, Acetamide, 2-{o-{5-[3,6-dihydro-3-methyl-2,6-dioxo-4-(trifluoromethyl)-1(2H)-pyrimidinyl]-1,2-benzisothiazol-3-yl}phenoxy}-]
[1]; [11]
  herbicidal effect rating, ECHORC: 3.6
[1]; [12]
  herbicidal effect rating, ECHORC: 5.1
[1]; [13]
  herbicidal effect rating, ECHORC: 5.6
[1]; [14]
  herbicidal effect rating, ECHORC: 9.0
[1]; [15]
  herbicidal effect rating, ECHORC: 9.0
[2]; [11]
  herbicidal effect rating, MOOVA: 8.0
[2]; [12]
  herbicidal effect rating, MOOVA: 9.0
[2]; [13]
  herbicidal effect rating, MOOVA: 9.0
[2]; [14]
  herbicidal effect rating, MOOVA: 9.0
[2]; [15]
  herbicidal effect rating, MOOVA: 9.0
[3]; [11]
  herbicidal effect rating, SAGPY: 0.0
[3]; [12]
  herbicidal effect rating, SAGPY: 0.0
[3]; [13]
  herbicidal effect rating, SAGPY: 0.0
[3]; [14]
  herbicidal effect rating, SAGPY: 2.0
[3]; [15]
  herbicidal effect rating, SAGPY: 4.0
[4]; [11]
  herbicidal effect rating, CYPSE: 0.0
[4]; [12]
  herbicidal effect rating, CYPSE: 0.0
[4]; [13]
  herbicidal effect rating, CYPSE: 0.0
[4]; [14]
  herbicidal effect rating, CYPSE: 4.0
[4]; [15]
  herbicidal effect rating, CYPSE: 0.0
[5]; Rate 0.0320 kg/ha
  herbicidal effect rating ORYSAT: 4.0
[5]; Rate 0.0620 kg/ha
  herbicidal effect rating ORYSAT: 7.0
[5]; Rate 0.1250 kg/ha
  herbicidal effect rating ORYSAT: 7.0
[5]; Rate 0.2500 kg/ha
  herbicidal effect rating ORYSAT: 7.0
[5]; Rate 0.5000 kg/ha
  herbicidal effect rating ORYSAT: 4.0
[6]; [11]
  herbicidal effect rating, CYPIR: 0.0
[6]; [12]
  herbicidal effect rating, CYPIR: 2.0
[6]; [13]
  herbicidal effect rating, CYPIR: 6.0
[6]; [14]
  herbicidal effect rating, CYPIR: 6.0
[6]; [15]
  herbicidal effect rating, CYPIR: 9.0
